Reference: ChEMBL document CHEMBL4340528, “Profiling withanolide A for therapeutic targets in neurodegenerative diseases” (Bioorg Med Chem, 2019)

Columns and labels:
[1] = molecular target: T1, 1,25-dihydroxyvitamin D(3) 24-hydroxylase, mitochondrial (Homo sapiens, UniProt Q07973); assay: Binding affinity to CYP24A1 in human A549 cells lysates grown on SILAC media at 10 uM incubated for 1 hr by LC-MS/MS analysis; assay type: subcellular, Lysate; details: a549, 1 h
T1 sequence (Q07973 whole entry): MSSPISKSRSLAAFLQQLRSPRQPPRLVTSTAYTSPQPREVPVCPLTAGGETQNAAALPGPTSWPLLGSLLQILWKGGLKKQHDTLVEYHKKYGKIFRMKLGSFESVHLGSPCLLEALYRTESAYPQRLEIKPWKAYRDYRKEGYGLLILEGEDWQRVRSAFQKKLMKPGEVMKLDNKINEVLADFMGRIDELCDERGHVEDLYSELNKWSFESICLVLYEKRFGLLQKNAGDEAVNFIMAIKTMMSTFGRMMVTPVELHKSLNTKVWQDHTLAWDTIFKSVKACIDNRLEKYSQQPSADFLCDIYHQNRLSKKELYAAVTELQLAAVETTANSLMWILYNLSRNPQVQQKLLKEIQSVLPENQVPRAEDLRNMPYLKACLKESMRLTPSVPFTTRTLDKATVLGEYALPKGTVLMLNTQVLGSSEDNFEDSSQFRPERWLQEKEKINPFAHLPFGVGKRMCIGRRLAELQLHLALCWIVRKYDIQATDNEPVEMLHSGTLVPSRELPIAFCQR

SH-SY5Y [2] = assay: Induction of neurite outgrowth in human SH-SY5Y cells assessed as increase in neurite length of more than 50 micrometer by measuring cell differentiation at 1 uM incubated for 6 days by Giemsa staining based phase contrast microscopic analysis relative to control; assay type: functional
SH-SY5Y [3] = assay: Induction of neurite outgrowth in human SH-SY5Y cells assessed as increase in neurite length of more than 50 micrometer by measuring cell differentiation at 1 uM in presence of dexamethasone incubated for 6 days by Giemsa staining based phase contrast microscopic analysis relative to control; assay type: functional
SH-SY5Y [4] = assay: Induction of neurite outgrowth in human SH-SY5Y cells assessed as increase in neurite length of more than 50 micrometer by measuring cell differentiation at 1 uM in presence of mifepristone incubated for 6 days by Giemsa staining based phase contrast microscopic analysis relative to control; assay type: functional
[5] = molecular target: T1, 1,25-dihydroxyvitamin D(3) 24-hydroxylase, mitochondrial; assay: Binding affinity to CYP24A1 in human A549 cells lysates grown on SILAC media at 10 uM incubated for 1 hr by LC-MS/MS analysis relative to untreated control; assay type: subcellular, Lysate; details: a549, 1 h
[6] = molecular target: Reticulon-4 (Homo sapiens) (UniProt Q9NQC3); details: A549, Lysate
Description: Binding affinity to RTN4 in human A549 cells lysates grown on SILAC media at 10 uM incubated for 1 hr by LC-MS/MS analysis relative to untreated control

[7] = molecular target: Minor histocompatibility antigen H13 (Homo sapiens) (UniProt Q8TCT9); details: A549, Lysate
Description: Binding affinity to HM13 in human A549 cells lysates grown on SILAC media at 10 uM incubated for 1 hr by LC-MS/MS analysis relative to untreated control

[8] = molecular target: Prostaglandin E synthase 2 (Homo sapiens) (UniProt Q9H7Z7); details: A549, Lysate
Description: Binding affinity to PTGES2 in human A549 cells lysates grown on SILAC media at 10 uM incubated for 1 hr by LC-MS/MS analysis relative to untreated control

[9] = molecular target: Mitochondrial carrier homolog 2 (Homo sapiens) (UniProt Q9Y6C9); details: A549, Lysate
Description: Binding affinity to MTCH2 in human A549 cells lysates grown on SILAC media at 10 uM incubated for 1 hr by LC-MS/MS analysis relative to untreated control

[10] = molecular target: Mitochondrial import receptor subunit TOM40 homolog (Homo sapiens) (UniProt O96008); details: A549, Lysate
Description: Binding affinity to TOMM40 in human A549 cells lysates grown on SILAC media at 10 uM incubated for 1 hr by LC-MS/MS analysis relative to untreated control

[11] = molecular target: Non-selective voltage-gated ion channel VDAC2 (Homo sapiens) (UniProt P45880); details: A549, Lysate
Description: Binding affinity to VDAC2 in human A549 cells lysates grown on SILAC media at 10 uM incubated for 1 hr by LC-MS/MS analysis relative to untreated control

[12] = molecular target: Non-selective voltage-gated ion channel VDAC3 (Homo sapiens) (UniProt Q9Y277); details: A549, Lysate
Description: Binding affinity to VDAC3 in human A549 cells lysates grown on SILAC media at 10 uM incubated for 1 hr by LC-MS/MS analysis relative to untreated control

[13] = molecular target: Cytoskeleton-associated protein 4 (Homo sapiens) (UniProt Q07065); details: A549, Lysate
Description: Binding affinity to CKAP4 in human A549 cells lysates grown on SILAC media at 10 uM incubated for 1 hr by LC-MS/MS analysis relative to untreated control

[14] = molecular target: Sarcoplasmic/endoplasmic reticulum calcium ATPase 2 (Homo sapiens) (UniProt P16615); details: A549, Lysate
Description: Binding affinity to ATP2A2 in human A549 cells lysates grown on SILAC media at 10 uM incubated for 1 hr by LC-MS/MS analysis relative to untreated control

[15] = molecular target: Glucocorticoid receptor (Homo sapiens) (UniProt P04150); details: A549, Lysate
Description: Binding affinity to NR3C1 in human A549 cells lysates grown on SILAC media at 10 uM incubated for 1 hr by LC-MS/MS analysis relative to untreated control

[16] = molecular target: Trifunctional enzyme subunit beta, mitochondrial (Homo sapiens) (UniProt P55084); details: A549, Lysate
Description: Binding affinity to HADHB in human A549 cells lysates grown on SILAC media at 10 uM incubated for 1 hr by LC-MS/MS analysis relative to untreated control

[17] = molecular target: Heme oxygenase 2 (Homo sapiens) (UniProt P30519); details: A549, Lysate
Description: Binding affinity to HMOX2 in human A549 cells lysates grown on SILAC media at 10 uM incubated for 1 hr by LC-MS/MS analysis relative to untreated control

[18] = molecular target: Glutathione S-transferase omega-1 (Homo sapiens) (UniProt P78417); details: A549, Lysate
Description: Binding affinity to GSTO1 in human A549 cells lysates grown on SILAC media at 10 uM incubated for 1 hr by LC-MS/MS analysis relative to untreated control

[19] = molecular target: NPC intracellular cholesterol transporter 1 (Homo sapiens) (UniProt O15118); details: A549, Lysate
Description: Binding affinity to NPC1 in human A549 cells lysates grown on SILAC media at 10 uM incubated for 1 hr by LC-MS/MS analysis relative to untreated control

[20] = molecular target: G patch domain-containing protein 8 (Homo sapiens) (UniProt Q9UKJ3); details: A549, Lysate
Description: Binding affinity to GPATCH8 in human A549 cells lysates grown on SILAC media at 10 uM incubated for 1 hr by LC-MS/MS analysis relative to untreated control

[21] = molecular target: Antigen peptide transporter 1 (Homo sapiens) (UniProt Q03518); details: A549, Lysate
Description: Binding affinity to TAP1 in human A549 cells lysates grown on SILAC media at 10 uM incubated for 1 hr by LC-MS/MS analysis relative to untreated control

[22] = molecular target: Mitochondrial antiviral-signaling protein (Homo sapiens) (UniProt Q7Z434); details: A549, Lysate
Description: Binding affinity to MAVS in human A549 cells lysates grown on SILAC media at 10 uM incubated for 1 hr by LC-MS/MS analysis relative to untreated control

[23] = molecular target: Histidine--tRNA ligase, cytoplasmic (Homo sapiens) (UniProt P12081); details: A549, Lysate
Description: Binding affinity to HARS in human A549 cells lysates grown on SILAC media at 10 uM incubated for 1 hr by LC-MS/MS analysis relative to untreated control

[24] = molecular target: Ubiquitin carboxyl-terminal hydrolase 5 (Homo sapiens) (UniProt P45974); details: A549, Lysate
Description: Binding affinity to USP5 in human A549 cells lysates grown on SILAC media at 10 uM incubated for 1 hr by LC-MS/MS analysis relative to untreated control

[25] = molecular target: Neutral cholesterol ester hydrolase 1 (Homo sapiens) (UniProt Q6PIU2); details: A549, Lysate
Description: Binding affinity to NCEH1 in human A549 cells lysates grown on SILAC media at 10 uM incubated for 1 hr by LC-MS/MS analysis relative to untreated control

[26] = molecular target: Ubiquitin carboxyl-terminal hydrolase 10 (Homo sapiens) (UniProt Q14694); details: A549, Lysate
Description: Binding affinity to USP10 in human A549 cells lysates grown on SILAC media at 10 uM incubated for 1 hr by LC-MS/MS analysis relative to untreated control

[27] = molecular target: von Willebrand factor (Homo sapiens) (UniProt P04275); details: A549, Lysate
Description: Binding affinity to VWF in human A549 cells lysates grown on SILAC media at 10 uM incubated for 1 hr by LC-MS/MS analysis relative to untreated control

[28] = molecular target: Carnitine O-palmitoyltransferase 1, liver isoform (Homo sapiens) (UniProt P50416); details: A549, Lysate
Description: Binding affinity to CPT1A in human A549 cells lysates grown on SILAC media at 10 uM incubated for 1 hr by LC-MS/MS analysis relative to untreated control

[29] = molecular target: Cytochrome b5 type B (Homo sapiens) (UniProt O43169); details: A549, Lysate
Description: Binding affinity to CYB5B in human A549 cells lysates grown on SILAC media at 10 uM incubated for 1 hr by LC-MS/MS analysis relative to untreated control

[30] = molecular target: Keratin, type II cuticular Hb1 (Homo sapiens) (UniProt Q14533); details: A549, Lysate, pooled result: one value given for 5 cell lines, strains, targets or settings
Description: Binding affinity to KRT81 in human A549 cells lysates grown on SILAC media at 10 uM incubated for 1 hr by LC-MS/MS analysis relative to untreated control

[31] = molecular target: Glutathione S-transferase 3, mitochondrial (Homo sapiens) (UniProt O14880); details: A549, Lysate
Description: Binding affinity to MGST3 in human A549 cells lysates grown on SILAC media at 10 uM incubated for 1 hr by LC-MS/MS analysis relative to untreated control

[32] = molecular target: Serine/threonine-protein kinase greatwall (Homo sapiens) (UniProt Q96GX5); details: A549, Lysate
Description: Binding affinity to MASTL in human A549 cells lysates grown on SILAC media at 10 uM incubated for 1 hr by LC-MS/MS analysis relative to untreated control

[33] = molecular target: WD repeat and HMG-box DNA-binding protein 1 (Homo sapiens) (UniProt O75717); details: A549, Lysate
Description: Binding affinity to WDHD1 in human A549 cells lysates grown on SILAC media at 10 uM incubated for 1 hr by LC-MS/MS analysis relative to untreated control

[34] = molecular target: Transcription intermediary factor 1-beta (Homo sapiens) (UniProt Q13263); details: A549, Lysate
Description: Binding affinity to TRIM28 in human A549 cells lysates grown on SILAC media at 10 uM incubated for 1 hr by LC-MS/MS analysis relative to untreated control

[35] = molecular target: Isocitrate dehydrogenase [NADP] cytoplasmic (Homo sapiens) (UniProt O75874); details: A549, Lysate
Description: Binding affinity to IDH1 in human A549 cells lysates grown on SILAC media at 10 uM incubated for 1 hr by LC-MS/MS analysis relative to untreated control

[36] = molecular target: Heterogeneous nuclear ribonucleoprotein F (Homo sapiens) (UniProt P52597); details: A549, Lysate
Description: Binding affinity to HNRNPF in human A549 cells lysates grown on SILAC media at 10 uM incubated for 1 hr by LC-MS/MS analysis relative to untreated control

[37] = molecular target: Polyubiquitin-B (Homo sapiens) (UniProt P0CG47); details: A549, Lysate, pooled result: one value given for 5 cell lines, strains, targets or settings
Description: Binding affinity to UBB in human A549 cells lysates grown on SILAC media at 10 uM incubated for 1 hr by LC-MS/MS analysis relative to untreated control

[38] = molecular target: Glutamate--cysteine ligase regulatory subunit (Homo sapiens) (UniProt P48507); details: A549, Lysate
Description: Binding affinity to GCLM in human A549 cells lysates grown on SILAC media at 10 uM incubated for 1 hr by LC-MS/MS analysis relative to untreated control

[39] = molecular target: Heat shock protein beta-1 (Homo sapiens) (UniProt P04792); details: A549, Lysate
Description: Binding affinity to HSPB1 in human A549 cells lysates grown on SILAC media at 10 uM incubated for 1 hr by LC-MS/MS analysis relative to untreated control

[40] = molecular target: Aldehyde dehydrogenase 1A1 (Homo sapiens) (UniProt P00352); details: A549, Lysate
Description: Binding affinity to ALDH1A1 in human A549 cells lysates grown on SILAC media at 10 uM incubated for 1 hr by LC-MS/MS analysis relative to untreated control

[41] = molecular target: MKI67 FHA domain-interacting nucleolar phosphoprotein (Homo sapiens) (UniProt Q9BYG3); details: A549, Lysate
Description: Binding affinity to MKI67 in human A549 cells lysates grown on SILAC media at 10 uM incubated for 1 hr by LC-MS/MS analysis relative to untreated control

[42] = molecular target: Aldo-keto reductase family 1 member C2 (Homo sapiens) (UniProt P52895); details: A549, Lysate
Description: Binding affinity to AKR1C2 in human A549 cells lysates grown on SILAC media at 10 uM incubated for 1 hr by LC-MS/MS analysis relative to untreated control

[43] = molecular target: SAFB-like transcription modulator (Homo sapiens) (UniProt Q9NWH9); details: A549, Lysate
[44] = molecular target: Perilipin-3 (Homo sapiens) (UniProt O60664); details: A549, Lysate
Description: Binding affinity to PLIN3 in human A549 cells lysates grown on SILAC media at 10 uM incubated for 1 hr by LC-MS/MS analysis relative to untreated control

Chain of Non-selective voltage-gated ion channel VDAC2 (Homo sapiens) (P45880 whole entry): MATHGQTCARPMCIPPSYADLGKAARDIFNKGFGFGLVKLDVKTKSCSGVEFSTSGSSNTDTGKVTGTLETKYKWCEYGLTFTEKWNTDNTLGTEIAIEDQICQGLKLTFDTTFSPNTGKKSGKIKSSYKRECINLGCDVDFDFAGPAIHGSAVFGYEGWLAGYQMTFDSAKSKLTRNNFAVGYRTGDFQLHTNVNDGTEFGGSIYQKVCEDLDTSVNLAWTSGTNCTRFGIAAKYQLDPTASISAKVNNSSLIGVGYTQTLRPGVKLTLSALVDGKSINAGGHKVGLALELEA
Chain of Reticulon-4 (Homo sapiens) (Q9NQC3 whole entry): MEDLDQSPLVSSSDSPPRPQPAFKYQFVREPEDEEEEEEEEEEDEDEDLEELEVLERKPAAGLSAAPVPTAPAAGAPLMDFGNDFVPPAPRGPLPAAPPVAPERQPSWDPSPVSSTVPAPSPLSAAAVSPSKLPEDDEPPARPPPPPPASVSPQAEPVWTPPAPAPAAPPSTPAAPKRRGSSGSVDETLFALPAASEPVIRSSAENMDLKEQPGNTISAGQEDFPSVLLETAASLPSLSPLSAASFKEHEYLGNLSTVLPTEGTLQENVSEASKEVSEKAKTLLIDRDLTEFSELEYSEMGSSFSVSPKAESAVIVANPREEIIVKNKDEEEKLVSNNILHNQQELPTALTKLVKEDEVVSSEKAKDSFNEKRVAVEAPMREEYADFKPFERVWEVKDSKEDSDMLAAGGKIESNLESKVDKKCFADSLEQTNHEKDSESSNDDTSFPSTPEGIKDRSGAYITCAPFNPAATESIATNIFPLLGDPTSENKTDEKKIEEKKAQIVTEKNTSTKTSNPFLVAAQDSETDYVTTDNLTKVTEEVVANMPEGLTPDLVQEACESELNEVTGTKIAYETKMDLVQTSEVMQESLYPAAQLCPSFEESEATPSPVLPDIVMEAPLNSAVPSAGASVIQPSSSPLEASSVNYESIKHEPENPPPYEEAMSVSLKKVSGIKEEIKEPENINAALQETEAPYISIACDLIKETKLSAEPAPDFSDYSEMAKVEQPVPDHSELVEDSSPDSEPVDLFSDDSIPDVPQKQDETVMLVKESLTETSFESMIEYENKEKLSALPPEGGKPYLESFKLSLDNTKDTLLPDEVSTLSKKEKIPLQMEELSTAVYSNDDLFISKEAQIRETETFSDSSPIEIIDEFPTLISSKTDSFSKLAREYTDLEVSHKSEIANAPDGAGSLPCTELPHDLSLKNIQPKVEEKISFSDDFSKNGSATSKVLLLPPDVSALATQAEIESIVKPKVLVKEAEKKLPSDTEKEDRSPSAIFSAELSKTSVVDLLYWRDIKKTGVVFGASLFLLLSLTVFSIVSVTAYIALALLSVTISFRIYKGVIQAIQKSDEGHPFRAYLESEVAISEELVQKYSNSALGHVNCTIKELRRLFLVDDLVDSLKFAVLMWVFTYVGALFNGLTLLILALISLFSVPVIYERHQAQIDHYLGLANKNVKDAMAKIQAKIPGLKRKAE
Chain of Non-selective voltage-gated ion channel VDAC3 (Homo sapiens) (Q9Y277 whole entry): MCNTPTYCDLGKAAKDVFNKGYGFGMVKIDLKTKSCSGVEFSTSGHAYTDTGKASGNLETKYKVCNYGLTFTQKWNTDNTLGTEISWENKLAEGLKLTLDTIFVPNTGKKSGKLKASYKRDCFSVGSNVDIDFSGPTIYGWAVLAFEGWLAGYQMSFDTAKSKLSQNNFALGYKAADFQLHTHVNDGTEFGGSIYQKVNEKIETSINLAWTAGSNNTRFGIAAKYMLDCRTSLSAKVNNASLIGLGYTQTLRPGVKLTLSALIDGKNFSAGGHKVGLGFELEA
Chain of Cytochrome b5 type B (Homo sapiens) (O43169 whole entry): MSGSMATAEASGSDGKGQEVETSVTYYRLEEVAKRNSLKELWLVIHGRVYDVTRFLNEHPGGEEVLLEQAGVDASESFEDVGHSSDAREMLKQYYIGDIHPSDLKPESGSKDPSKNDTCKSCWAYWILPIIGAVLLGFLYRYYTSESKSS
Chain of Prostaglandin E synthase 2 (Homo sapiens) (Q9H7Z7 whole entry): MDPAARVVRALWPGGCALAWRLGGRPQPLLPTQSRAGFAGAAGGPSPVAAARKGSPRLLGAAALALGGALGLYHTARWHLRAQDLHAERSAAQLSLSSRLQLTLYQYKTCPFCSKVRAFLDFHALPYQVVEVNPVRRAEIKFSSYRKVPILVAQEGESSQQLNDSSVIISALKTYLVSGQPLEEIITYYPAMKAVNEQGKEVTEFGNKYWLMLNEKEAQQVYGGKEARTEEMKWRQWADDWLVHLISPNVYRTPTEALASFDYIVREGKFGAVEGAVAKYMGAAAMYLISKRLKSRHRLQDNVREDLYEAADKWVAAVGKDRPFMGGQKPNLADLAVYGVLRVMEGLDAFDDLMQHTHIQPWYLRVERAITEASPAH
Chain of Cytoskeleton-associated protein 4 (Homo sapiens) (Q07065 whole entry): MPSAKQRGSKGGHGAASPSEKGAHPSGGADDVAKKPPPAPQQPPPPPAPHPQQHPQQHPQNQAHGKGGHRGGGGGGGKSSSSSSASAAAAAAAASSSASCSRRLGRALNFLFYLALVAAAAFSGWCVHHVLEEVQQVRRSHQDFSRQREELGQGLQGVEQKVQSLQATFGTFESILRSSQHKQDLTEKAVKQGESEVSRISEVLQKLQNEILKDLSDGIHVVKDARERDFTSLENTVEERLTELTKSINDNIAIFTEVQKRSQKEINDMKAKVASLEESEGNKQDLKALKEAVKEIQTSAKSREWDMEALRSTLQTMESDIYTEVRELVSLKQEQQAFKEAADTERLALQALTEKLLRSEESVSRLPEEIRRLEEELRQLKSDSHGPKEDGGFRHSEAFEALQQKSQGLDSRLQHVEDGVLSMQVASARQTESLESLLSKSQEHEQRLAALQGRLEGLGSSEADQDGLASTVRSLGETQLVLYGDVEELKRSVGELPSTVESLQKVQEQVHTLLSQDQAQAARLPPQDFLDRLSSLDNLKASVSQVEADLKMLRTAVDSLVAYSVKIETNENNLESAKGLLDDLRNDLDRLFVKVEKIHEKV
Chain of Sarcoplasmic/endoplasmic reticulum calcium ATPase 2 (Homo sapiens) (P16615 whole entry): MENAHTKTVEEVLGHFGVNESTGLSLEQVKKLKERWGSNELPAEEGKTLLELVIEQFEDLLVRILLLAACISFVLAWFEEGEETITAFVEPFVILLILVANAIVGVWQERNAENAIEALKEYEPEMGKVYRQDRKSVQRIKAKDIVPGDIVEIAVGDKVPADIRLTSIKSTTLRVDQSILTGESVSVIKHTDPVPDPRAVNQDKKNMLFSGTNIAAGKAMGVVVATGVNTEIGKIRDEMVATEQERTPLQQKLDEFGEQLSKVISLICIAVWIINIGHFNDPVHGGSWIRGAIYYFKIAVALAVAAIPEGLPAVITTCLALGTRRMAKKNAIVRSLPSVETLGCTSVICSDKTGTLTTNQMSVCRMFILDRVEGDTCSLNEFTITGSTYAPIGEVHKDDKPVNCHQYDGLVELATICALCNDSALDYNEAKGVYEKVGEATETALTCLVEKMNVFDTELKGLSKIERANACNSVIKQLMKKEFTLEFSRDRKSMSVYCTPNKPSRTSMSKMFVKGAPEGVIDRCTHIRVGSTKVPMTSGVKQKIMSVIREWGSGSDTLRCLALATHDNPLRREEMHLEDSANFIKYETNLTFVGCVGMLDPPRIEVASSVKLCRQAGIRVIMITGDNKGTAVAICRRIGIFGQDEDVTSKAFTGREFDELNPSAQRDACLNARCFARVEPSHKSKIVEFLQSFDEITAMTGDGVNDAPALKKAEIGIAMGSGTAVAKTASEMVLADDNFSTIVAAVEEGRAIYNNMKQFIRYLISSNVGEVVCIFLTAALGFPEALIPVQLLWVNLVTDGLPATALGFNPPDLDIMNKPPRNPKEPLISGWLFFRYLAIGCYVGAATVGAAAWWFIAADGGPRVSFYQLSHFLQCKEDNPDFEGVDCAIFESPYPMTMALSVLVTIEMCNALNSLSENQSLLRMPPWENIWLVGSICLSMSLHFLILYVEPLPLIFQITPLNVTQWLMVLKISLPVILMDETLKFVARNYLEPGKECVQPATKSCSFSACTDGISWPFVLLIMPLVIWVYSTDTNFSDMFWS
Chain of Mitochondrial carrier homolog 2 (Homo sapiens) (Q9Y6C9 whole entry): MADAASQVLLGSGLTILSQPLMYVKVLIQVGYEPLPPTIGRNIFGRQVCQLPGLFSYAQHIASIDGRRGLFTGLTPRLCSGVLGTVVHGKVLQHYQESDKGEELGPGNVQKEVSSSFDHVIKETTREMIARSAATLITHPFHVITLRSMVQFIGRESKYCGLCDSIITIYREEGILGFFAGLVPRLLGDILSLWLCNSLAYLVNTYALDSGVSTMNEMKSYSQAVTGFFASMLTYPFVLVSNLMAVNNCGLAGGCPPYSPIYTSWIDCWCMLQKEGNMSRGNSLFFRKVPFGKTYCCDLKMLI
Chain of Mitochondrial import receptor subunit TOM40 homolog (Homo sapiens) (O96008 whole entry): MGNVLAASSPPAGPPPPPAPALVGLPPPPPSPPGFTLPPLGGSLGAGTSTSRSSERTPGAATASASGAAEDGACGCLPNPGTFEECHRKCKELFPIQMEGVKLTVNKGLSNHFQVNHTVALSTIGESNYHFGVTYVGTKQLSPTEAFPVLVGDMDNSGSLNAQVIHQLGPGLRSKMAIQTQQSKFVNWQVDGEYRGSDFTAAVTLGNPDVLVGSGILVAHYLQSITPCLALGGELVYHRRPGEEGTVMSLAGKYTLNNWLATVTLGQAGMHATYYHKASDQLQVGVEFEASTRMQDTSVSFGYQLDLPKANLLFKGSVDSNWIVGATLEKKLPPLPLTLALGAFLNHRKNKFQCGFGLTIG
Chain of Minor histocompatibility antigen H13 (Homo sapiens) (Q8TCT9 whole entry): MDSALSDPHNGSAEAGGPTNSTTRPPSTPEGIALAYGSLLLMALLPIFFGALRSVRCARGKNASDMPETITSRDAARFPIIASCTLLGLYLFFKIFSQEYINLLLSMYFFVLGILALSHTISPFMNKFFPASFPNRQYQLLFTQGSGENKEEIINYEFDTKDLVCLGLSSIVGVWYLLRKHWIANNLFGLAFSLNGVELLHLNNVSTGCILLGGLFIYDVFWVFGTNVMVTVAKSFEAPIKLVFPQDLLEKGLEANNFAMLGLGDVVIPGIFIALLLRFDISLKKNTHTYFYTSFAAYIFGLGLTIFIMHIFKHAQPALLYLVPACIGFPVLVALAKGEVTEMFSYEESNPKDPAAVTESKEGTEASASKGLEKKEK

Structure (SMILES): C#CCOC(=O)/C(C)=C(C)\C=C\[C@](C)(O)[C@H]1CC[C@H]2[C@@H]3[C@@H]4O[C@@H]4[C@@]4(O)CC=CC(=O)[C@]4(C)[C@H]3CC[C@@]21C
- Activity [1]: Active
- Activity (SH-SY5Y [2]): 40%
- Activity (SH-SY5Y [3]): 38%
- Activity (SH-SY5Y [4]): 40%
- log2FC [5]: 1.875
- log2FC [6]: 8.71
- log2FC [7]: 3.52
- log2FC [8]: 4.11
- log2FC [9]: 1.38
- log2FC [10]: 2.16
- log2FC [11]: 3.01
- log2FC [12]: 1.18
- log2FC [13]: 2.99
- log2FC [14]: 3.3
- log2FC [15]: 1.96
- log2FC [16]: 3.09
- log2FC [17]: 7.1
- log2FC [18]: 3.99
- log2FC [19]: 2.08
- log2FC [20]: 2.25
- log2FC [21]: 2.34
- log2FC [22]: 1.62
- log2FC [23]: 1.86
- log2FC [24]: 1.08
- log2FC [25]: 1.16
- log2FC [26]: 1.27
- log2FC [27]: 1.63
- log2FC [28]: 1.41

Structure (SMILES): C#CCO/N=C1\CCC[C@]2(O)[C@H]3O[C@H]3[C@H]3[C@@H]4CC[C@H]([C@@](C)(O)[C@H]5CC(C)=C(C)C(=O)O5)[C@@]4(C)CC[C@@H]3[C@@]12C
- Activity (SH-SY5Y [2]): 48%

Structure (SMILES): C#CCO/N=C1/CC[C@]2(C)[C@H]3CC[C@]4(C)[C@@H]([C@@](C)(O)[C@H]5CC(C)=C(C)C(=O)O5)CC[C@H]4[C@@H]3[C@@H]3O[C@@H]3[C@@]2(O)C1
- Activity (SH-SY5Y [2]): 50%

Structure (SMILES): C#CCOC(=O)/C(C)=C(C)\C=C\[C@](C)(O)[C@H]1CC[C@H]2[C@@H]3[C@@H]4O[C@@H]4C4=CC=CC(=O)[C@]4(C)[C@H]3CC[C@@]21C
- Activity (SH-SY5Y [2]): 41%
- Activity (SH-SY5Y [3]): 40%
- Activity (SH-SY5Y [4]): 44%
- log2FC [29]: 4.61
- log2FC [30]: 3.66
- log2FC [9]: 2.11
- log2FC [10]: 2.05
- log2FC [11]: 4.38
- log2FC [12]: 2.96
- log2FC [13]: 1.79
- log2FC [14]: 4.85
- log2FC [15]: 2.03
- log2FC [31]: 3.04
- log2FC [32]: 1.28
- log2FC [33]: 1.74
- log2FC [34]: 2.45
- log2FC [35]: 2.46
- log2FC [36]: 1.88
- log2FC [37]: 1.47
- log2FC [38]: 2.81
- log2FC [39]: 2.14
- log2FC [40]: 1.25
- log2FC [41]: 1.89
- log2FC [42]: 1.02

Structure (SMILES): C[C@@H]1C[C@H]2[C@@H]3CCC4=CC(=O)C=C[C@]4(C)[C@@]3(F)[C@@H](O)C[C@]2(C)[C@@]1(O)C(=O)CO [DEXAMETHASONE]
- Activity (SH-SY5Y [2]): 16%

Structure (SMILES): CC1=C(C)C(=O)O[C@@H]([C@](C)(O)[C@H]2CC[C@H]3[C@@H]4[C@@H]5O[C@@H]5[C@@]5(O)CC=CC(=O)[C@]5(C)[C@H]4CC[C@]23C)C1 [WITHANOLIDE A]
- Activity (SH-SY5Y [2]): 46%
- Activity (SH-SY5Y [3]): 46%
- Activity (SH-SY5Y [4]): 47%

Structure (SMILES): C#CCO/N=C1/C=C[C@]2(C)[C@H]3CC[C@]4(C)[C@@H]([C@@](C)(O)[C@H]5CC(C)=C(C)C(=O)O5)CC[C@H]4[C@@H]3[C@@H]3O[C@@H]3[C@@]2(O)C1
- Activity (SH-SY5Y [2]): 55%

Structure (SMILES): C#CCO/N=C1\C=CC[C@]2(O)[C@H]3O[C@H]3[C@H]3[C@@H]4CC[C@H]([C@@](C)(O)[C@H]5CC(C)=C(C)C(=O)O5)[C@@]4(C)CC[C@@H]3[C@@]12C
- Activity [1]: Active
- Activity (SH-SY5Y [2]): 58%
- Activity (SH-SY5Y [3]): 37%
- Activity (SH-SY5Y [4]): 33%
- log2FC [6]: 3.73
- log2FC [29]: 7.33
- log2FC [43]: 2.27
- log2FC [7]: 2.25
- log2FC [44]: 0.964
- log2FC [8]: 1.16

Structure (SMILES): CC#C[C@]1(O)CC[C@H]2[C@@H]3CCC4=CC(=O)CCC4=C3[C@@H](c3ccc(N(C)C)cc3)C[C@@]21C [MIFEPRISTONE]
- Activity (SH-SY5Y [2]): 50%

Structure (SMILES): CC1=C(/C=C/C(C)=C/C=C/C(C)=C/C(=O)O)C(C)(C)CCC1 [TRETINOIN]
- Activity (SH-SY5Y [2]): 45%
